Data on three molecules can be found in patent US20230277553A1, “THERAPEUTIC COMPOSITION OF CURE-PRO COMPOUNDS FOR TARGETED DEGRADATION OF BET DOMAIN PROTEINS, AND METHODS OF MAKING AND USAGE” (CORNELL UNIVERSITY, priority 2020, published 2023).

SMILES strings stand for the structures. “Also recorded” adds a separate entry of the source.

For experiment [1], the system named is MV-4-11 cells. The experiment in a line: CellTiter-Glo cell viability, MV-4-11 cells. The format is cell-based. As to the method:
CellTiter-Glo® 2.0 Cell Viability Assay (Promega) was carried out following the manufacturer's recommendations. Cells were seeded at a density of 1000 cells/well in a white 96 well plates (Corning, #3917) in a total volume of 100 μl with respective monomers, combinations of BRD ligands together with E3 ligase ligands or vehicle control treatment. After a 72 h incubation, 100 ul of the CellTiter-Glo® substrate was added per well and luminescence was read on a Spectramax M5 (Molecular Devices). Dose-response curves were generated using Graphpad Prism software.
MV-4-11 cells (5×104) were treated for 24 hours with the sample compounds solubilized in DMSO. The compounds were added at 1 nM-100 μM each. Cellular viability was determined using the CellTiter-Glo® Luminescent Cell Viability Assay (Promega) described above. FIGS. 19-22 depict the CURE-PRO-mediated loss of cellular viability for BRD monomers (JQ1 derivatives comprising of catechol linkers), and CRBN ligand, 8049 (pomalidomide derivatives comprising boronic acid linkers) combined in a 1:1 ratio.
MV-4-11 cells (1×104) were treated for 72 hours with the compounds solubilized in DMSO. Compounds were added at 10 nM-100 μM each. Cellular viability was determined using the CellTiter-Glo® Luminescent Cell Viability Assay (Promega) described above. FIGS. 47-54 depict the CURE-PRO-mediated loss of cellular viability for BRD monomers (JQ1 derivatives comprising of boronic acid linkers), and CRBN ligands, 8046, 8047 and 8066 (pomalidomide derivatives comprising diol linkers) combined in a 1:1 ratio.
In general terms: In ATP-based viability assays light output follows the ATP content of the culture.

Experiment [2] has as its target T1, BRD2 (Homo sapiens, UniProt P25440).
T1 construct: endogenous in cells; host or cells: HCT116
The experiment in a line: CURE-PRO-mediated BRD2 degradation with MDM2 ligands, Western blot, HCT116 cells. Conditions: HCT116, 24 h, 1:1, 10 μM. The format is cell-based. The text has this: Anti-BRD4 (13440, 1:1,000 dilution for Western Blot and 1:25 dilution for ProteinSimple); Anti-BRD2 (5848 1:1,000 dilution for Western Blot and 1:25 dilution for ProteinSimple); β-Actin (3700, 1:2,000 dilution for Western Blot), β-Actin (4970, 1:50 dilution for ProteinSimple) anti-mouse IgG-HRP, and anti-rabbit IgG-HRP antibodies were purchased Cell Signaling Technology. Anti-GAPDH (600-401-A33, 1:100 dilution for ProteinSimple) was purchased from Rockland Immunochemicals, Inc. Anti-BRD3 (sc-81202, 1:200 dilution for Western Blot) was purchased from Santa Cruz Biotechnology.
HeLa, MCF7, or HCT116 cells (2.5-3×10^6) were treated for 24 hours with the indicated compounds solubilized in DMSO. The cells were washed in ice-cold PBS and were then lysed in RIPA lysis buffer (150 mM NaCl, 5 mM EDTA, 1% NP-40, 0.5% sodium deoxycholate, 0.1% SDS, 50 mM Tris, pH 8.0.) with Roche protease inhibitor complete cocktail and phosphatase inhibitors (10 mM sodium fluoride, 10 mM sodium pyrophosphate, 1 mM sodium orthovanadate and 20 mM β-glycerophosphate). The total protein concentrations were determined by Bradford Protein Assay and 10-20 μg of protein was loaded onto 4-15% Tris-Glycine gradient gels (Biorad). […] Signal was detected with ECL Western Blotting Substrate (Pierce) and X-ray film processed with a Konica SRX-101 X-ray film processor or captured by Bio-Rad's Chemidoc Imaging system. […]
Background: A western blot detects proteins with antibodies after separation by electrophoresis.

Experiment [3] concerns SLC19A1. Put plainly: Suppression of c-MYC downstream target gene SLC19A1, RT-PCR (Cells-to-Ct), HeLa cells. The format is cell-based, Human. To be noted: 24 h, 10 μM each. As to the method: The suppression of the expression of the downstream c-MYC target, SLC19A1, was measured by RT-PCR using Power SYBR© Green Cells-to-Ct™ Kit (Life Technologies). Adherent cells were plated on 96 well plates at 5,000 cells per well were treated for 24h with monomer compounds and compounds capable of reversible interactions (1 nM-100 μM). Cells were subsequently washed in ice-cold PBS processed according to the manufacturer's instructions. Quantitative real-time PCR was performed using a ViiA™ 7 Real-time PCR System (Applied Biosystems, Foster City, Calif., USA). GAPDH and ACTB served as internal controls. The primers used were (5′-3′): GAPDH-F: AGCCACATCGCTCAGACAC (SEQ ID NO:9), GAPDH-R: GCCCAATACGACCAAATCC (SEQ ID NO:10), ACTB —F: CCAACCGCGAGAAGATGA (SEQ ID NO: 11), ACTB -R: […] (SEQ ID NO: 12), SLC19A1-F: […] (SEQ ID NO:13), SLC19A1-R: […] (SEQ ID NO: 14).
HeLa cells (1×104) were treated for 24 hours in 96 well plates with the compounds solubilized in DMSO. Compounds were added at 10 μM each and RNA expression measured by the Cells-to Ct method described above (Thermofisher). CURE-PRO-mediated suppression of the downstream target gene of c-MYC, SLC19A1, after BRD4 degradation was evident in cells treated with the combination of BRD-N25 and 8310 or 8312 (FIG. 66) and BRD-N39 and 8310 and 8312 (FIG. 67) as indicated by a rightward shift in the curve and in increase in the Ct values.

T1 sequence (P25440 whole entry): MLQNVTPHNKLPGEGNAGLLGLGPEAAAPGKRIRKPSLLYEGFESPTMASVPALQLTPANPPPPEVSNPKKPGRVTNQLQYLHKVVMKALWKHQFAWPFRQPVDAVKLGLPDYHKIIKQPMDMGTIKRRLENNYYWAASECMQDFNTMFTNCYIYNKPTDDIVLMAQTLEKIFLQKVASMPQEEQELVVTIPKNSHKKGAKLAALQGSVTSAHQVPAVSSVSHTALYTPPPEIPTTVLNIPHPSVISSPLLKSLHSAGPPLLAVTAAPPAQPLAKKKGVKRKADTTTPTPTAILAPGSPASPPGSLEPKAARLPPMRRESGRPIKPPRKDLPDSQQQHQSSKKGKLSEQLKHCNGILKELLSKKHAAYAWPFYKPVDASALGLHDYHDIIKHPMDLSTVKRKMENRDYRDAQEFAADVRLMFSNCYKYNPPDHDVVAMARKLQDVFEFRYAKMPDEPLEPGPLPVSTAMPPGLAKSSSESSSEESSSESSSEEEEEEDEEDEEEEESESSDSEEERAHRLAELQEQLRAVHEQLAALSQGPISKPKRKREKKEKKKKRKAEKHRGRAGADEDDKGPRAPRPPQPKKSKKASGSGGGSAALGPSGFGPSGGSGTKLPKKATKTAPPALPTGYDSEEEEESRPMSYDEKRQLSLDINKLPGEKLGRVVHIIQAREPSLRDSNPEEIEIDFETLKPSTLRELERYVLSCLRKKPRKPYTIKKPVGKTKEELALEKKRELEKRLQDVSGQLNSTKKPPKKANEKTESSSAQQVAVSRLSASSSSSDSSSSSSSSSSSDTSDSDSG

For the molecule `CCNC(=O)C[C@@H]1N=C(c2ccc(Cl)cc2)c2cc(OCCCCC(=O)Nc3cccc(B(O)O)c3)ccc2-n2c(C)nnc21` [BRD-E20, (3-(5-(((4S)-6-(4-chlorophenyl)-4-(2-(ethylamino)-2-oxoethyl)-1-methyl-4H-benzo[f][1,2,4]triazolo[4,3-a][1,4]diazepin-8-yl)oxy)pentanamido)phenyl)boronic acid], the “Loss of cellular viability / toxicity, cotreated with cereblon ligands 8046, 8047 and 8066 vs monomers alone” value in experiment [1] (MV-4-11, 72 hours, 1:1, 10 nM-100 μM each) is “reduced viability; also recorded: increased toxicity”.
For the molecule `CCNC(=O)C[C@@H]1N=C(c2ccc(Cl)cc2)c2cc(OCCNC(=O)c3cccc(O)c3O)ccc2-n2c(C)nnc21` [BRD-N25], in experiment [2], the “BRD2 degradation, in combination with MDM2 ligands 8310 and 8312” value is given as “BRD2 to a lesser extent; also recorded: Degradation is evident”. In experiment [3], the “Suppression of SLC19A1 expression, combination with 8310” value is recorded as “evident” and the “Suppression of SLC19A1 expression, combination with 8312” value is listed as “evident; also recorded: suppressed more substantially”. The “Loss of cellular viability / toxicity, co-dosed with CRBN ligand 8049” value in experiment [1] (MV-4-11, 24 hours, 1:1 with 8049, 1 nM-100 μM each) is “concentration-dependent loss in cellular viability; also recorded: increased toxicity”.
For `CCNC(=O)C[C@@H]1N=C(c2ccc(Cl)cc2)c2cc(OCCOCCNC(=O)c3cccc(O)c3O)ccc2-n2c(C)nnc21` [BRD-N39, N-(2-(2-(((4S)-6-(4-chlorophenyl)-4-(2-(ethylamino)-2-oxoethyl)-1-methyl-4H-benzo[f][1,2,4]triazolo[4,3-a][1,4]diazepin-8-yl)oxy)ethoxy)ethyl)-2,3-dihydroxybenzamide], the “BRD2 degradation, in combination with MDM2 ligands 8310 and 8312” value in experiment [2] is reported as “BRD2 to a lesser extent; also recorded: Degradation is evident”. Besides, in experiment [3], the “Suppression of SLC19A1 expression, combination with 8310” value is “evident; also recorded: suppression to levels comparable to that of JQ1 treatment” and the “Suppression of SLC19A1 expression, combination with 8312” value was “Complete suppression of SLC19A1 was evident; also recorded: completely suppressed”.
